# Assay results published in patent US9834514B2, “Antibiotic sensitivity-restoring and photosensitive agents” (New Mexico Tech Research Foundation, priority 2015, dated 2017).
# What was measured:
# P. aeruginosa = test: MIC against P. aeruginosa; format: cell-based; settings: Pseudomonas aeruginosa, read-out: MIC
# Source text: Only compound 1 was able to decrease the CFU/mL when used in conjunction with white light to treat P. aeruginosa.
# VRE [1] = test: MIC against VRE; format: cell-based, Enterococcus faecalis; settings: Enterococcus, TABLE 23, read-out: VRE MIC
# Method: In a 12×75 mm borosilicate glass culture tube, 1 mL of cell suspension was added. Then, compound 7 was added to the cells, and the samples were mixed using a vortex mixer. […] The samples were incubated overnight at 37° C. on a rotary shaking incubator at 100 rpm.
# VRE [2] = test: Resensitization to antibiotics (log reduction, TABLE 29); format: cell-based, Enterococcus faecalis; settings: compound 1 μM; Light (2 min)
# A. baumannii = test: as above; format: cell-based; settings: compound 5 μM
# [3] = tested on: Klebsiella pneumoniae (CRE, ATCC BAA-1705); test: Cell killing of CRE with compounds in presence or absence of PMB (CFU/mL); format: cell-based
# Method: Klebsiella pneumoniae (CRE, ATCC BAA-1705) was grown in TSB overnight at 37° C. and diluted to about 5×10^5 CFU/mL using a McFarland Latex Turbidity standard (0.5). One mL of the cell suspension was transferred to a glass culture test tube. PMB was added to the cell suspension resulting in a final concentration of 200 μg/mL of PMB. The cell suspension was incubated at 37° C. on a rotary shaking incubator at 150 rpm for 4 hours. Compounds 1, 7, 8, 9, 10, and 11 were added to the cell suspension, resulting in a concentration of 20 μM for each of the compounds. The cell suspensions containing the compounds were incubated at 37° C. on a rotary shaking incubator at 150 rpm for 4 hours. Each sample was diluted tenfold to a 10^−5 dilution. Ten 10 microliters of each dilution from each sample was dripped onto a TSA plate and allowed to streak down the plate. The agar plates were incubated at 37° C. for 18-24 hours. Colony counts were performed and CFU/mL values were calculated.
# The MICs of PMB and compounds 7-11 were determined against Klebsiella pneumoniae (CRE, ATCC BAA-1705). […] After the incubation with PMB, each of the compounds was added at a concentration of 20 μM, and the samples were incubated for an additional 18 hours. A sample was taken and diluted ten-fold in media. Ten microliters of each dilution was then drip-streaked onto an agar plate and incubated overnight at 37° C. Colony counts were then performed and the concentrations of cells (CFU/mL) were calculated.
smiles,measurement,setting,value
Clc1ccc(/C=C/c2[nH]c3ccccc3c2/C=C/c2ccc(Cl)cc2)cc1 [Compound 1],MIC,P. aeruginosa,> 100 µM
same,MIC,VRE [1],> 200 µM
same,Log Reduction,VRE [2],8-9
same,Log Reduction,A. baumannii; PMB (0.5 μg/mL),8
same,Log Reduction,A. baumannii; PME (0.2 μg/mL),8
same,PMB + Comp,[3]; PMB @ 0.2 μg/mL + Comp @ 20 µM,8.2 × 10^3 CFU/mL
same,Comp @ 20 µM,[3]; compound alone,6.4 × 10^8 CFU/mL
